Measurements taken from patent US20250073177A1, “LIPID NANOPARTICLES FOR OLIGONUCLEOTIDE DELIVERY” (ZIPHIUS NV, priority 2021, published 2025).

Key:
[1] = saRNA encapsulation in LNP, Quant-IT RiboGreen assay; format: physicochemical; details: LNP with firefly luciferase saRNA, RiboGreen with or without Triton X-100
Procedure: The saRNA loading in LNP formulations was quantified using a Quant-IT RiboGreen assay (Thermo Fisher Scientific, Waltham, Massachusetts, USA) as previously described. 14 samples were diluted tenfold in 1×Tris HCL-EDTA (TE) buffer (10 mM Tris-HCL, 1 mM EDTA, pH 7.5) with or without 2% (v/v) Triton X-100 (Sigma-Aldrich, Saint Louis, Missouri, USA). Standard solutions were also prepared in 1×TE with or without 2% (v/v) Triton X-100 to account for any variation in fluorescence. The assay was performed according to the manufacturer's protocol. Samples were loaded on a black 96-well plate and analysed for fluorescence on a microplate reader (Tecan Infinite® 200 PRO) at an excitation of 485 nm and emission at 528 nm. Encapsulation efficiency was calculated between 80-100%. See Table 3 below for the results obtained.

[2] = Body weight of mice after injection of LNP-formulated luciferase saRNA; format: in vivo; details: 1 μg luciferase saRNA in LNP
Procedure: (§1) Female SWISS mice (6 weeks old) were purchased from Janvier Laboratories (Paris, France) and kept in individually ventilated cages with access to food and water ad libitum. Mice were anesthetized with isoflurane (Zoetis, Louvain-La-Neuve, Belgium) (5% for induction and 2% for maintenance) and intramuscularly injected with a total of 1 μg in 100 μL Tris-HCL (50 μL per leg) LNP-formulated luciferase saRNA (for each group n=7). The expression of the luciferase induced bioluminescence was measured via non-invasive In vivo bioluminescent imaging (In vivo Imaging System (IVIS) Lumina III, Perkin Elmer, Waltham, Massachusetts, USA), 10 minutes after subcutaneous injection of 200 μL of D-luciferin (GoldBio, Saint Louis, Missouri, USA, #LUCK-1G) were measured in day 0 (before injection), day 1, day 3, day 5, day 7, day 10, day 15 and day 20.
See Tables 4 and FIG. 1 for the results showing higher expression of the saRNA compared to prior art compounds at day 15 onwards when administered in LNPs comprising compounds of the invention. Table 5 supports good tolerability of the compounds of the invention.

[3] = LNP particle size, polydispersity index and charge by Zeta Sizer; format: physicochemical; details: LNP lipid:DOPE:Cholesterol:DMG-PEG 35:20:43.5:1.5, N/P about 40/1, firefly luciferase saRNA
Procedure: Cationic lipids, DOPE, Cholesterol and DMG-PEG lipid were solubilized in ethanol or DMSO at a molar ratio of 35:20:43.5:1.5 and a concentration of 100:25:20:25 μg/μL for C12-200 or 170:25:20:25 μg/μL for the comparator lipids. Lipid nanoparticles (LNP) were prepared by targeting an N/P ratio of approximately 40/1 with saRNA. Briefly, the firefly luciferase saRNA of approximately 9659 nucleotides was diluted to 0.5 mg/mL in 5 mM citrate buffer, pH 4.5. Microfluidic mixer (Ignite from Precision Nanosystems, California, USA) was used to mix the lipid solution with the saRNA aqueous solution at a ratio of about 1:3 (vol/vol) with total flow rates above 10 ml/min. The ethanol was then removed, and the external buffer replaced with 10 mM TRIS-HCL, PH 7.4, by dialysis. Finally, the lipid nanoparticles were filtered through a 0.2 μm pore sterile filter. Lipid nanoparticle particle size was 50-150 nm diameter and polydispersity index (PI) of 0.1-0.4 as determined by Zeta Sizer (Malvern Panalytical, UK). The charge of the formulation was also measured by Zeta Sizer and ranged between 20 to −20 mV.

[4] = tested on: Female SWISS mice; test: In vivo bioluminescent imaging of LNP-formulated luciferase saRNA expression; details: 1 μg luciferase saRNA in LNP
Procedure: as §1

[5] = Day 0 (before injection), intramuscular

| SMILES | Encapsulation [1] | Weight [2, 5] | Weight ([2]; Day 1, intramuscular) | Weight ([2]; Day 3, intramuscular) | Weight ([2]; Day 5, intramuscular) | Weight ([2]; Day 7, intramuscular) | Weight ([2]; Day 10, intramuscular) | Weight ([2]; Day 15, intramuscular) | Weight ([2]; Day 20, intramuscular) | Polydispersity Index (PI) [3] | Z-average [3] | Zetapotential [3] | Bioluminescence expression of LNPs [4, 5] | Bioluminescence expression of LNPs ([4]; Day 1, intramuscular) | Bioluminescence expression of LNPs ([4]; Day 3, intramuscular) | Bioluminescence expression of LNPs ([4]; Day 5, intramuscular) | Bioluminescence expression of LNPs ([4]; Day 7, intramuscular) | Bioluminescence expression of LNPs ([4]; Day 10, intramuscular) | Bioluminescence expression of LNPs ([4]; Day 15, intramuscular) | Bioluminescence expression of LNPs ([4]; Day 20, intramuscular) |
| --- | --- | --- | --- | --- | --- | --- | --- | --- | --- | --- | --- | --- | --- | --- | --- | --- | --- | --- | --- | --- |
| CCCCCCCCCCCCCCOC(=O)CCN(CCC(=O)OCCCCCCCCCCCCCC)CCN1CCN(CCN(CCC(=O)OCCCCCCCCCCCCCC)CCC(=O)OCCCCCCCCCCCCCC)CC1 [Comparator 1, reference compound] | 99.03% | 26.56 g | 25.99 g | 27.21 g | 27.59 g | 27.09 g | 27.17 g | 29.43 g | 30.11 g | 0.16 | 70.96 nm | 9.07 mV | – | – | – | – | – | – | – | – |
| CCCCCCC(CCCC)C(=O)NCCN1CCN(CCN(CCCCOC(=O)C(CCCC)CCCCCC)CCCCOC(=O)C(CCCC)CCCCCC)CC1 (stereo not shown) [Compound 8-27, ((2-(4-(2-(2-butyloctanamido)ethyl)piperazin-1-yl)ethyl)azanediyl)bis(butane-4,1-diyl) bis(2-butyloctanoate)] | 98.64% | 27.07 g | 26.01 g | 27.57 g | 28.86 g | 28.40 g | 28.67 g | 29.44 g | 30.57 g | 0.16 | 85.72 nm | −12.65 mV | 8.55E+04 | 1.40E+08 | 9.90E+08 | 7.71E+08 | 2.35E+08 | 6.86E+06 | 7.44E+05 | 8.29E+05 |
| CCCCCCC(CCCC)C(=O)OCCCCN(CCCCOC(=O)C(CCCC)CCCCCC)CCN1CCN(CCOC(=O)C(CCCC)CCCCCC)CC1 (stereo not shown) [Compound 8-41, ((2-(4-(2-((2-butyloctanoyl)oxy)ethyl)piperazin-1-yl)ethyl)azanediyl)bis(butane-4,1-diyl) bis(2-butyloctanoate)] | 99.04% | 28.03 g | 27.31 g | 28.49 g | 29.04 g | 28.69 g | 29.24 g | 30.24 g | 31.19 g | 0.23 | 81.44 nm | −20.01 mV | 5.33E+04 | 5.42E+07 | 7.43E+08 | 6.54E+08 | 4.67E+08 | 9.17E+06 | 1.88E+06 | 1.88E+06 |
| CCCCCCCCCCC(O)CN(CCN1CCN(CCN(CC(O)CCCCCCCCCC)CC(O)CCCCCCCCCC)CC1)CCN(CC(O)CCCCCCCCCC)CC(O)CCCCCCCCCC (stereo not shown) [Compound C12-200, 1,1′-((2-(4-(2-((2-(bis (2-hydroxydodecyl)amino)ethyl) (2-hydroxydodecyl)amino)ethyl)piperazin-1-yl)ethyl)azanediyl)bis (dodecan-2-ol), reference compound] | 100.49% | 28.61 g | 27.17 g | 28.62 g | 28.98 g | 28.97 g | 29.23 g | 30.16 g | 31.23 g | 0.10 | 81.42 nm | 2.78 mV | – | – | – | – | – | – | – | – |
